Test system: L1210
Test: Antitumor activity against mouse L1210 cells allografted in mouse assessed as increase of host lifespan
Format: functional
Details: not given

Row | Compound | log(1/C)
1 | CN(C)/N=N/c1ccccc1C(=O)O | 3.64
2 | CNC(=O)c1ccccc1/N=N/N(C)C | 3.25
3 | CN/N=N/c1nc[nH]c1C(=O)N1CCCC1 | 3.28
4 | CCCCN(C)/N=N/c1[nH]cnc1C(N)=O | 3.54
5 | CN/N=N/c1nc[nH]c1C(=O)OC | 3.35
6 | CCCN(C)/N=N/c1n[nH]cc1C(N)=O | 3.7
7 | CN(C)/N=N/c1nc(Cc2ccccc2)[nH]c1C(N)=O | 2.89
8 | CN(C)/N=N/c1cc(C#N)cc(C#N)c1 | 2.78
9 | COc1ccc(CN(C)/N=N/c2ccc(C#N)cc2)cc1 | 2.72
10 | COC(=O)c1ccccc1/N=N/N(C)CC(C)C | 3.12
11 | COC(=O)c1cccc(/N=N/N(C)C)c1 | 3.42
12 | CCOC(=O)c1c[nH]nc1/N=N/N(C)C | 3.35
13 | COC(=O)c1ccc(/N=N/N(C)C)cc1 | 3.2
14 | CCN(C)/N=N/c1ccc(C(N)=O)cc1 | 3.66
15 | CCOC(=O)c1[nH]cnc1/N=N/N(C)C | 3.98
16 | CCCCN(C)/N=N/c1c(C(N)=O)n[nH]c1C | 3.83
17 | CCCN(C)/N=N/c1nc[nH]c1C(N)=O | 3.58
18 | CN(CCO)/N=N/c1ccccc1C(N)=O | 3.07
19 | CCCCN(C)/N=N/c1ccccc1C(N)=O | 3.1
20 | CN(C)/N=N/c1ccc(C(=O)O)cc1 | 3.22
21 | CN(C)/N=N/c1[nH]cnc1C(N)=O [DACARBAZINE] | 3.29

Row | Compound | log(1/C)
22 | CN(C)/N=N/c1cc(Cl)cc(C(N)=O)c1Cl | 3.04
23 | CC(=O)Nc1ccc(/N=N/N(C)C)cc1 | 4.04
24 | CCCCOC(=O)c1[nH]cnc1/N=N/N(C)C | 3.53
25 | CN(C)/N=N/c1ccccc1[N+](=O)[O-] | 3.28
26 | CN(C)/N=N/c1cc(C(N)=O)cc(C(N)=O)c1 | 3.27
27 | CN(C)/N=N/c1ccc(CCCC(=O)NN)cc1 | 3.6
28 | CN(C)/N=N/c1ccc(NC=O)cc1 | 3.85
29 | CN(Cc1ccccc1)/N=N/c1ccccc1 | 3.03
30 | CCCCCN(C)/N=N/c1nc[nH]c1C(N)=O | 3.58
31 | CCCCCCCCN(C)/N=N/c1ccc(Cl)cc1C(=O)O | 3.14
32 | Cc1cccc(/N=N/N(C)C)c1 | 3.4
33 | CN(C)/N=N/c1c[nH]nc1C(N)=O | 3.42
34 | CCNC(=O)c1ccccc1/N=N/N(C)C | 2.92
35 | COc1ccc(/N=N/N(C)C(=O)c2ccccc2)cc1 | 3.05
36 | CN(C)/N=N/c1ccc(C(N)=O)cc1C(N)=O | 3.27
37 | CCCCN(C)/N=N/c1ccc([N+](=O)[O-])cc1C(N)=O | 3.08
38 | CN(/N=N/c1nc[nH]c1C(N)=O)c1cccs1 | 3.87
39 | CN(C)/N=N/c1c(Cl)cc(Cl)cc1C(N)=O | 3.14
40 | CN(CCc1ccccc1)/N=N/c1nc[nH]c1C(N)=O | 3.49
41 | C=CCN(C)/N=N/c1ccccc1C(N)=O | 3.43
42 | CN(C)/N=N/c1ccc([N+](=O)[O-])cc1C(N)=O | 3.26

Row | Compound | log(1/C)
43 | CN(C)/N=N/c1ccc(C(N)=O)cc1 | 3.51
44 | CCOC(=O)c1[nH]c(-c2ccccc2)nc1/N=N/N(C)C | 3.48
45 | CN(C)/N=N/c1ccc(S(=O)(=O)Nc2ncccn2)cc1 | 3.74
46 | Cc1nc(/N=N/N(C)C)c(C(N)=O)[nH]1 | 3.06
47 | CN(C)/N=N/c1cccc(C(N)=O)c1 | 3.8
48 | C#CCN(C)/N=N/c1nc[nH]c1C(N)=O | 3.61
49 | C=CCN(C)/N=N/c1ccc(NC(N)=O)cc1 | 3.77
50 | CCCCN(C)/N=N/c1n[nH]cc1C(=O)OCC | 3.16
51 | CCN(C)/N=N/c1ccc(NC(N)=O)cc1 | 3.87
52 | COC(=O)c1n[nH]c(C(C)C)c1/N=N/N(C)C | 3.3
53 | CN(CCO)/N=N/c1n[nH]cc1C(N)=O | 3.1
54 | CC(C)CN(C)/N=N/c1nc[nH]c1C(N)=O | 3.51
55 | CN(C)/N=N/c1cccnc1 | 3.46
56 | CCCCCCCCN(C)/N=N/c1ccc(C(N)=O)cc1 | 2.84
57 | Cc1ccc(/N=N/N(C)C)cc1 | 3.76
58 | CCOC(=O)c1[nH]cnc1/N=N/N(C)CCO | 3.38
59 | CCOC(=O)c1ccc(/N=N/N(C)CC(C)C)cc1 | 2.8
60 | C=CCN(C)/N=N/c1n[nH]cc1C(N)=O | 3.77
61 | CN(C)/N=N/c1ccc(C#N)cc1C(N)=O | 3.46
62 | COC(=O)c1[nH]cnc1/N=N/N(C)C | 3.86
63 | CN(/N=N/c1ccccc1C(=O)NN)C1CCCCC1 | 2.99

Row | Compound | log(1/C)
64 | CCOC(=O)CCCc1ccc(/N=N/N(C)C)cc1 | 3.54
65 | CN(CCO)/N=N/c1[nH]cnc1C(N)=O | 3.12
66 | CN(/N=N/c1ccc(C(N)=O)cc1)c1cccs1 | 2.9
67 | CN(CCc1ccccc1)/N=N/c1n[nH]cc1C(N)=O | 3.52
68 | CC(C)N(C)/N=N/c1ccc(C(N)=O)cc1 | 3.17
69 | Cc1[nH]nc(C(N)=O)c1/N=N/N(C)C | 3.84
70 | CN(C)/N=N/c1ccc(S(N)(=O)=O)cc1C(N)=O | 3.32
71 | CCCCN(C)/N=N/c1n[nH]cc1C(N)=O | 3.81
72 | CCCCN(C)/N=N/c1ccccc1C(=O)O | 3.15
73 | CCCN(C)/N=N/c1ccccc1C(N)=O | 3.26
74 | CCCCCCCCOC(=O)c1[nH]cnc1/N=N/N(C)C | 3.06
75 | CN(C)/N=N/c1c(F)cccc1F | 3.63
76 | CC(=O)c1cccc(/N=N/N(C)C)c1 | 3.58
77 | CCOC(=O)c1nc(C)[nH]c1/N=N/N(C)C | 3.35
78 | CC(C)Cc1nc(/N=N/N(C)C)c(C(N)=O)[nH]1 | 3.53
79 | CCCc1nc(/N=N/N(C)C)c(C(N)=O)[nH]1 | 3.42
80 | C/N=N/Nc1ccccc1 | 3.6
81 | CCOC(=O)c1ccc(/N=N/N(C)CC)cc1 | 3.01
82 | CCCCN(C)/N=N/c1ccc(CCC(=O)OCC)cc1 | 3.02

Test system: not listed separately
Test: Distribution coefficient, log P of the compound
Format: physicochemical
Details: octanol/water

Row | Compound | logP
83 | CNC(=O)c1ccccc1/N=N/N(C)C | 1.83
84 | CN(C)/N=N/c1cc(C#N)cc(C#N)c1 | 2.18
85 | CCOC(=O)c1[nH]cnc1/N=N/N(C)C | 0.44
86 | CN(C)/N=N/c1cc(C(N)=O)cc(C(N)=O)c1 | 0.22

Organism: Mus musculus
Test: Toxicity in mouse L1210 cells allografted mouse assessed as mortality up to 5 days
Format: organism-based
Details: l1210, 120 h

Row | Compound | Activity
87 | COc1ccc(/N=N/N(C)C)c(C(=O)O)c1 | Toxic
88 | CN(C)/N=N/c1ccc(Cl)cc1 | Toxic
89 | CN(CC#N)/N=N/c1ccc(C(N)=O)cc1 | Toxic
90 | CON(C)/N=N/c1ccc(C(N)=O)cc1 | Toxic
91 | CN(C)/N=N/c1cccc(NC(N)=O)c1 | Toxic
92 | CN(/N=N/c1ccccc1C(=O)O)C1CCCCC1 | Toxic
93 | C=CCN(CC=C)/N=N/c1ccc(C(N)=O)cc1 | Toxic
94 | CNN(C)/N=N/c1ccc(C(N)=O)cc1 | Toxic
95 | CC(=O)c1ccc(/N=N/N(C)C)cc1 | Toxic
96 | CN(CCO)/N=N/c1ccccc1Cl | Toxic
97 | CN(CCO)/N=N/c1ccccc1C#N | Toxic
98 | CN(C)/N=N/c1ccc([N+](=O)[O-])cc1 | Toxic
99 | CONC(=O)c1ccccc1/N=N/N(C)C | Toxic
100 | CN(C)/N=N/c1ccc(C(F)(F)F)cc1 | Toxic
101 | CN(C)/N=N/c1cccc(Cl)c1 | Toxic
102 | CN(C)/N=N/c1ccc(Cl)cc1C(N)=O | Toxic
103 | CN/N=N/c1ccc(C)cc1 | Toxic

From ChEMBL document CHEMBL3244339, “Antitumor 1-(X-aryl)-3,3-dialkyltriazenes. 1. Quantitative structure-activity relationships vs. L1210 leukemia in mice” (J Med Chem, 1978)
